PubChem BioAssay (NCI)
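Results reflect a 48-hour exposure of cells in 96-well plates to compound at five concentrations. Here, GI50 denotes the concentration required for 50% inhibition of growth. TGI marks complete inhibition of growth.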

Assays:
Assay in all cases: NCI-60 cell line screen, 48 h
CCRF-CEM leukemia = test system: CCRF-CEM leukemia
DMS 273 small cell lung = test system: DMS 273 small cell lung
HL-60(TB) leukemia = test system: HL-60(TB) leukemia
KM12 colon = test system: KM12 colon
RPMI-8226 leukemia = test system: RPMI-8226 leukemia
SK-MEL-5 melanoma = test system: SK-MEL-5 melanoma
SW-620 colon = test system: SW-620 colon
DMS 114 small cell lung = test system: DMS 114 small cell lung
SR leukemia = test system: SR leukemia
MDA-MB-231 breast = test system: MDA-MB-231 breast

Row | SMILES | TGI (CCRF-CEM leukemia) | TGI (DMS 273 small cell lung) | TGI (HL-60(TB) leukemia) | TGI (KM12 colon) | TGI (RPMI-8226 leukemia) | TGI (SK-MEL-5 melanoma) | TGI (SW-620 colon) | TGI (DMS 114 small cell lung) | TGI (SR leukemia) | GI50 (CCRF-CEM leukemia) | GI50 (HL-60(TB) leukemia) | GI50 (KM12 colon) | GI50 (MDA-MB-231 breast) | TGI (MDA-MB-231 breast) | GI50 (RPMI-8226 leukemia) | GI50 (SK-MEL-5 melanoma) | GI50 (SR leukemia) | GI50 (SW-620 colon)
1 | C/C(=N\[N+](C)(C)C)C(c1ccccc1)C1(c2ccccc2)C(c2ccccc2)=C1c1ccccc1 (stereo not given) | > 100 µM | > 100 µM | > 100 µM | > 100 µM | > 100 µM | > 100 µM | > 100 µM |  |  |  |  |  |  |  |  |  |  | 
2 | CCOC(=O)C(=O)Nc1ccc([N+](=O)[O-])cc1C#N | > 100 µM |  | > 100 µM | > 100 µM | > 100 µM | > 100 µM | > 100 µM | > 100 µM | > 100 µM |  |  |  |  |  |  |  |  | 
3 | CC(=O)O[C@H]1C(=O)[C@@]2(C)[C@H]([C@H](OC(=O)c3ccccc3)[C@]3(O)C[C@H](OC(=O)[C@H](OC(=O)CCC(=O)OC4CCC(S/N=C(N)/N=C(\N)N(C)C)CC4)[C@@H](NC(=O)c4ccccc4)c4ccccc4)C(C)=C1C3(C)C)[C@]1(OC(C)=O)CO[C@@H]1C[C@@H]2O (stereo not given in full) | > 50 µM |  | 0.0234 µM | > 50 µM | > 43.5 µM | 10.5 µM | > 50 µM |  | > 50 µM | 0.0155 µM | 0.0101 µM | 0.0106 µM | 0.0249 µM | > 31.4 µM | 0.00605 µM | 0.0176 µM | 0.00631 µM | 0.0119 µM
4 | COC1=CC(C)C2C[C@H]3O[C@H](O)C[C@H]4C(C)C(=O)C(O)C([C@@]2(C)C1=O)[C@@]34C (stereo not given in full) | > 100 µM | > 100 µM |  | > 100 µM | > 100 µM | > 100 µM | > 100 µM | > 100 µM |  |  |  |  |  |  |  |  |  | 
5 | O=C(Nc1cccc(-c2nc3ccccc3[nH]2)c1)c1cccc(NC(=O)c2ccco2)c1 | 16.1 µM |  | 17.4 µM | 5.61 µM | 8.16 µM | 4.1 µM | 10.8 µM |  | 6.53 µM | 3.99 µM | 5.43 µM | 2.27 µM | 1.98 µM | 4.85 µM | 2.33 µM | 1.89 µM | 2.33 µM | 3.19 µM
6 | CCN(CC)CCCN1C(=O)c2c(c(C)c3c(oc4cc(O)ccc43)c2C)C1=O | 1.76 µM |  | 3.67 µM | 3.37 µM | 4.17 µM | 3.14 µM | 3.25 µM |  | 3.99 µM | 0.359 µM | 1.69 µM | 1.8 µM | 1.81 µM | 3.47 µM | 1.93 µM | 1.73 µM | 1.58 µM | 1.73 µM
7 | CC1(C)CC2=NOS3=C2C(=NO3)C1c1ccccn1 (stereo not given) | 78.4 µM |  | 51.7 µM | > 100 µM | > 100 µM | 34.8 µM | > 100 µM |  | 81 µM |  |  |  |  | > 100 µM |  |  |  | 
8 | COc1ccc(C(=O)c2ccc(OC)cc2OC)cc1 | > 100 µM |  | > 100 µM | 24.7 µM | 18.7 µM | 5.32 µM | > 100 µM |  | > 100 µM | 3.23 µM | 2.94 µM | 2.22 µM | 6.6 µM | 90.2 µM | 3.18 µM | 2.06 µM | 0.891 µM | 2.96 µM
9 | COc1cc2c3c(n(CCCn4ccnc4)c(=O)c2cc1OC)-c1ccccc1C3=O |  |  | 0.102 µM | 5.03 µM | 0.355 µM | 0.0861 µM |  |  | 0.0583 µM | < 0.01 µM | < 0.01 µM | 0.126 µM | 0.254 µM | 5.19 µM | < 0.0171 µM | < 0.0333 µM | 0.0252 µM | < 0.0206 µM
10 | O=C1CN2CCC1C/C2=C\c1ccnc2c(Cl)cccc12 (stereo not given) | > 100 µM |  | > 100 µM | > 100 µM | > 100 µM | > 100 µM | > 100 µM |  | > 100 µM | 36.5 µM | 67.4 µM | 56.8 µM | 88.8 µM | > 100 µM | 29.5 µM | 31 µM | 36.5 µM | > 100 µM
11 | O=[N+]([O-])c1ccccc1/C=C/C=C1c2ccccc2-c2ccccc21 | > 100 µM |  | > 100 µM | > 100 µM | > 100 µM | > 100 µM | > 100 µM |  | > 100 µM | > 100 µM | > 100 µM | > 100 µM | > 100 µM | > 100 µM | > 100 µM | > 100 µM | > 100 µM | > 100 µM
12 | C[C@@H](Oc1cc(-c2cnn(C3CC4(CCNCC4)C3)c2)cnc1N)c1c(F)ccc(Cl)c1Cl | 6.31 µM |  | 3.36 µM | 1.39 µM | 4.95 µM | 2.85 µM | 2.33 µM |  | 1.53 µM | 1.31 µM | 1.28 µM | 0.0399 µM | 1.26 µM | 3 µM | 1.63 µM | 1.47 µM | 0.0467 µM | 0.537 µM
13 | NC(=S)N/N=C1\C(=O)N(c2cccc([N+](=O)[O-])c2)C(=O)C1C(=O)Nc1cccc([N+](=O)[O-])c1 (stereo not given) | > 100 µM | > 100 µM | > 100 µM |  | > 100 µM | > 100 µM | > 100 µM | > 100 µM |  |  |  |  |  |  |  |  |  | 
14 | CCN(CC)CCCC(C)N/C(c1cccc(OC)c1)=c1\c(=O)[nH]n(-c2c3ccccc3nc3ccccc23)c(=O)\c1=C(/NC(C)CCCN(CC)CC)c1cccc(OC)c1 (stereo not given) | 3.93 µM |  | 5.23 µM | 6.51 µM | 5.06 µM | 3.13 µM | 6.82 µM |  | 5.61 µM | 0.482 µM | 2.16 µM | 1.18 µM | 1.25 µM | 3.26 µM | 2.08 µM | 1.7 µM | 1.28 µM | 0.528 µM
15 | COc1cc(N)ccc1Nc1c2ccccc2nc2ccccc12 | > 100 µM |  | 18.5 µM | 20.5 µM | > 29.9 µM | 21.5 µM | 13.5 µM |  | > 32.5 µM | 3.73 µM | 5.49 µM | 7.56 µM | 13.1 µM | 28.6 µM | 5.27 µM | 7.52 µM | 2.11 µM | 3.55 µM
